# Assay results as given in patent US6506576B2 (priority 2001, dated 2003).
# Like-named read-outs stand apart in the source and are kept apart here.
# Experiments:
# cerebellar granule cells [1] = experiment: LDH release assay of granule cell death after toxicant exposure; type: cell-based, rat
# Method: The lactate dehydrogenase (LDH) released into the media was determined using Cyto Tox96® non-radioactive cytotoxicity assay (Promega). In this calorimetric assay, LDH converts lactate and nicotinamide adenine dinucleotide (NAD^+) to pyruvate and NADH, respectively. This initial reaction is coupled to a second reaction where diaphorase converts iodo-nitro-tetrazolium salt and NADH to a red colored formazan compound and NAD^+ respectively. Briefly, 50 μl of assay buffer was added to each 100 μl sample of media removed from each well prior to MTS analysis. Samples were then incubated in the dark for 30 minutes at room temperature, and then 50 μl of a stop solution (1M acetic acid) was added into each well and the absorbance at 490 nm was measured as above. Positive control samples of bovine heart LDH (800 units/ml; lot 11455502, Promega) were serially diluted into a final volume of 200 μl and assayed as described above.
# (§1) Granule cell cultures were seeded at an initial density of 1×10^5 cells per well and maintained in GCSF culture media for 7 day in vitro prior to toxicant exposure. On the day of treatment, L-Glutamate, tert-butyl-hydroperoxide (TBHP), hydrogen peroxide (H2O2), ionomycin (Sigma), and MK-801 (Calbiochem, San Diego) were prepared at required concentration in the appropriate media. Cultures were exposed to toxicants for 24 hours prior to viability analysis. Cultures receiving MK-801 were pretreated for 10 minutes prior to addition of L-glutamate, and negative control cultures were treated with fresh media. For dose-dependence of oxidative-induced injury H2O2 and TBHP stock solutions were serially diluted in media to 100× concentrations immediately before each experiment. The concentration of the H2O2 stock solution was determined spectrophotometrically before each experiment based on its absorbance using the equation: C=(Ab240/ε)×DF; where C is the concentration of H2O2 (mM), Ab240 is absorbance at 240 nm, ε is the extinction coefficient (0.0394 mM^−1 cm^−1), DF is the dilution factor, and the path-length of the spectrophotometer is 1 cm. Comparative analysis of granule cell viability/lyses in GCSF and NB-B27 was assessed using the MTS reduction and LDH release assays as described above.
# cerebellar granule cells [2] = conditions: for concentration at which maximal effects on granule cell viability/lysis were observed / concentration at which significant effects on granule cell viability/lysis were initially detected: MTS reduction and LDH release, independent of culture condition (GCSF or NB-B27)
# Method: Viability of the cerebellar granule cell culture was assessed using CellTiter 96® AQueous One Solution Cell Proliferation reagent (Promega, G3580). This colorimetric assay employs, 3-(4,5-dimethylthiazol-2-yl)-5-(3-carboxymethoxyphenyl)-2-(4-sulfophenyl)-2H-tetrazolium (MTS) and the electron coupling reagent, phenazine ethosulfate (PES). […] Briefly, prior to each MTS assay, 100 μl of media was removed from each well, transferred to new 96-well plate for subsequent LDH release analysis. To each cell containing well, 20 μl of MTS tetrazolium reagent was added to the remaining media (100 μl). Culture plates were incubated in the humidified incubator at 37° C. and in 5% CO2 for 2 hours. Following incubation the quantity of formazan product present was determined by measuring the absorbance at 490 nm using a VERSAmax® microplate reader and SOFTmax PRO software (Molecular Devices).
# as §1
# [3] = test system: non-neuronal cells in cerebellar cultures; experiment: Inhibition of non-neuronal cell proliferation in primary cerebellar cultures (visual inspection, staining); type: cell-based, rat
# Method: Based on the calculated cell numbers, cerebellar cells were serially diluted in an appropriate volume of culture media and seeded into flat-bottom 96-well tissue culture plates pre-coated with poly-L-lysine (Becton Dickinson, Bedford, Mass.). The numbers of cerebellar cells seeded ranged from 6,250 to 400,000 cells per well (0.32 cm^2) in a final volume of 200 μl. Cultures were maintained in a humidified incubator in 5% CO2 at 37° C.
# After 7-30 day in vitro, cultures were washed 3 times with phosphate buffered saline (PBS) and fixed for 20-30 minutes with 4% paraformaldehyde in 0.1M sodium phosphate buffer (pH 7.4; PB). Following fixation, cells were washed 3 times with PBS, and either stained with 1% methylene blue (Sigma) in deionized water for 5 minutes and destained with deionized water or permeablized for immunostaining with 0.2% Triton X-100 in PBS. Permeablized cells were washed 3 times with PBS, incubated for 1 hour in 5% normal horse serum in PB and then incubated overnight at 4° C. with a glial fibrillary acidic protein (GFAP) antiserum (1:5000 dilution; Dako, Carpintea, Calif.). Following incubation with primary antiserum, cells were extensively washed with PBS plus 0.1% Tween-20 and immunoreactivity was visualized with NiCl/3,3′-diaminobenzidine (DAB) using the avidin-biotin-complex (ABC) method (Vector Elite-universal; Vector Laboratories, Burlingame, Calif.). […]
# [4] = 400 μM H2O2, 24 hours, 7 DIV cultures in GCSF
# [5] = 400 μM H2O2, 24 hours, 7 DIV cultures in NB-B27
# [6] = 125 μM TBHP, 24 hours, 7 DIV cultures in GCSF
# [7] = 125 μM TBHP, 24 hours, 7 DIV cultures in NB-B27
compound,measurement,setting,value
"OO [H2O2, hydrogen peroxide]",LDH-release,cerebellar granule cells [1]; [4],136.9±2.8 % of control
same,LDH-release,cerebellar granule cells [1]; [5],125±5.0 % of control
same,neuronal cell death (MTS reduction),"cerebellar granule cells [2]; 100 μM H2O2, 24 hours, GCSF, single experiment n=8",Statistically significant levels of neuronal cell death
same,MTS-reduction,cerebellar granule cells [2]; [4],41.5±1.0 % of control
same,MTS-reduction,cerebellar granule cells [2]; [5],47±1.2 % of control
same,concentration at which maximal effects on granule cell viability/lysis were observed,cerebellar granule cells [2]; 24 hours,400 µM
same,concentration at which significant effects on granule cell viability/lysis were initially detected,cerebellar granule cells [2]; 24 hours,200 µM
"N[C@@H](CCC(=O)O)C(=O)O [L-glutamate, L-Glutamate]",granule cell viability (MTS reduction),"cerebellar granule cells [2]; 500 μM L-glutamate, 24 hours, GCSF, representative single experiment",56.8±2 % of control cultures
C[C@]12N[C@H](Cc3ccccc31)c1ccccc12 [MK-801],viability of cultures pretreated with antagonist prior to L-glutamate exposure (MTS reduction),"cerebellar granule cells [2]; 10 μM MK-801 pretreatment 10 minutes, then 500 μM L-glutamate 24 hours, GCSF",not significantly different from the mock-treated control cultures
"CC(C)(C)OO [TBHP, tert-butyl-hydroperoxide]",LDH-release,cerebellar granule cells [1]; [6],125.4±1.4 % of control
same,LDH-release,cerebellar granule cells [1]; [7],122.7±5.6 % of control
same,MTS-reduction,cerebellar granule cells [2]; [6],37.9±0.8 % of control
same,MTS-reduction,cerebellar granule cells [2]; [7],43.7±1.9 % of control
same,concentration at which maximal effects on granule cell viability/lysis were observed,cerebellar granule cells [2]; 24 hours,125 µM
same,concentration at which significant effects on granule cell viability/lysis were initially detected,cerebellar granule cells [2]; 24 hours,62.5 µM
C[C@H](CCC(=O)O)C[C@H](C)C[C@H](C)C(=O)/C=C(\O)[C@H](C)C[C@H](C)C/C=C/[C@@H](C)[C@@H](O)[C@@H](C)[C@@H](O)C[C@@H]1CC[C@@](C)([C@H]2CC[C@@](C)([C@@H](C)O)O2)O1 [ionomycin],average maximal decrease in viability (MTS reduction),"cerebellar granule cells [2]; ionomycin treatment (10 nM per FIG. 6 legend), GCSF",56±5 % of control
cytosine β-D-arabinofuranoside [AraC],non-neuronal cell types in cultures,"[3]; 10 μM AraC added after 24 hour in vitro, NB-B27 or GCSF",less than 5%
same,cells with morphological phenotype of small cerebellar granule cell neurons,"[3]; 10 μM AraC added after 24 hours, 96-well plates, visual inspection",> 90%
